# From patent US8486957B2, “Chemotherapeutic for inducing an MSH2-dependent apoptotic pathway” (Wake Forest University Health Sciences, priority 2007, dated 2013)
# Like-named read-outs stand apart in the source and are kept apart here.
# Columns and labels:
# [1] = system: MSH2-proficient HEC59 cells with chromosome 2 transfer (HEC59 chr.2); assay: Cell viability (MTS) assay, MSH2-proficient cells; assay type: cell-based, human; conditions: for induction of cell death: MSH2-proficient cells; for IC50: 24 h exposure
# Protocol: (§1) Cells proficient and deficient in MSH2 were exposed to increasing concentrations of the drugs and cell survival determined in an MTS assay. This assay is based on the mitochondrial activity of living cells that reduces the tetrazolium product (MTS) into a formazan product that can be spectrophotometrically analyzed at OD490.
# (§2) Cell Viability assays. HEC59 cells and their isogenic counterpart with chromosome 2 transfer were grown in standard growth media of DMEM-F12+10% FBS. Cells were plated in 96 well plates at an appropriate concentration in 100 μl media and incubated overnight. Media was replaced with fresh media containing drug and allowed to incubate for 24 hrs at indicated concentrations. Untreated cells received fresh media containing 0.1% DMSO. One solution reagent (CellTiter 96(r) AQueous One Solution) is added to existing media (20 μl/well) and allowed to incubate 3-4 hrs. A plate reader was used to record the absorbance at 490 nm.
# (§3) The CellTiter 96® AQueous One Solution Cell Proliferation Assay® is a colorimetric method for determining the number of viable cells in proliferation, cytotoxicity or chemosensitivity assays. The CellTiter 96® AQueous One Solution Reagent contains a tetrazolium compound [3-(4,5-dimethylthiazol-2-yl)-5-(3-carboxymethoxyphenyl)-2-(4-sulfophenyl)-2H-tetrazolium, inner salt; MTS] and an electron coupling reagent (phenazine ethosulfate; PES). PES has enhanced chemical stability, which allows it to be combined with MTS to form a stable solution. The quantity of formazan product as measured by the amount of 490 nm absorbance is directly proportional to the number of living cells in culture.
# (§4) Dose-dependent response to nineteen increasing concentrations of the respective compound was determined, and analyzed for IC50 values using GraphPad Prism 4™. Each compound was analyzed in triplicates.
# [2] = system: MSH2-deficient HEC59 cells; assay: Cell viability (MTS) assay, MSH2-deficient cells; assay type: cell-based, human; conditions: for induction of cell death: MSH2-deficient cells; for IC50 / MSH2 dependence of cell death response (words): 24 h exposure; for Fold difference: IC50 MSH2-deficient vs MSH2-proficient cells, 24 h; for MSH2 dependence of cell death response (words): MSH2-deficient vs -proficient cells
# Protocol: as §1, §2, §3, §4
# [3] = system: RKO oxa cells; assay: MTS assay, oxaliplatin insensitive colorectal cancer cells; assay type: cell-based
# From the text: FIG. 7: MTS assay of colorectal cancer cells sensitive (RKO) and insensitive (RKO oxa) to oxaliplatin, treated with oxaliplatin, rescinnamine and combination.
# [4] = system: A2780cis cells; assay: MTS assay, platinum resistant ovarian cancer cells; assay type: cell-based; conditions: for cell killing: 10 uM cisplatin, 20 uM rescinnamine, lisinopril
# Protocol: (§5) A2780 is a cisplatinum-sensitive ovarian cancer cell line, […] its isogenic, but cisplatinum-resistant counterpart. Shown are average and standard deviations of a minimum of 3 individual experiments. Results were normalized to the untreated control. FIG. 5: MTS assays of platinum sensitive (A2780) and resistant (A2780cis) cells in the presence of 10 uM cisplatinum and increasing concentrations of rescinnamine. FIG. 6: MTS assay of A2780 and A2780cis ovarian cancer cells, untreated, treated with 10 uM cisplatin, 20 uM rescinnamine and lisinopril.
# [5] = system: MSH2/6-dependent cell death; assay: Caspase-3-dependent cell death assay; assay type: cell-based
# [6] = system: A2780 cells; assay: MTS assay, platinum sensitive ovarian cancer cells; assay type: cell-based; conditions: for cell killing: 10 uM cisplatin, 20 uM rescinnamine, lisinopril
# Protocol: as §5
# [7] = system: MSH2-deficient HEC59 cells; conditions: 48-72 hours after first exposure; cited from earlier work
# [8] = Homo sapiens, MTS, read-out: IC50 MSH2-proficient
# [9] = Homo sapiens, read-out: IC50 in MSH2-proficient cells
# [10] = Homo sapiens, MTS, read-out: IC50 MSH2-deficient
# [11] = in the presence of 10 uM cisplatinum
# [12] = Homo sapiens, read-out: IC50 in MSH2-deficient cells
compound,measurement,setting,value
Evodiamine,induction of cell death,[1],no significant cytotoxic effect
same,induction of cell death,[2],no significant cytotoxic effect
COC(=O)[C@H]1[C@H]2C[C@@H]3c4[nH]c5cc(OC)ccc5c4CCN3C[C@H]2C[C@@H](OC(=O)/C=C/c2cc(OC)c(OC)c(OC)c2)[C@@H]1OC [rescinnamine],overcoming oxaliplatin resistance,[3],"overcomes oxaliplatin resistance, albeit not to the same extent as cisplatinum resistance"
same,MSH2-dependent induction of cell death relative to reserpine,[1],roughly 2 fold
same,IC50,[1]; [8],39 µM
same,IC50,[1]; [9],39 µM
same,IC50,[2]; [10],87 µM
same,Fold difference,[2],2.6
same,MSH2 dependence of cell death response (words),[2],robust MSH2-dependent cell death response
same,cell killing,[4],overcoming cisplatinum resistance
same,cell death with increasing concentrations of rescinnamine,[4]; [11],"concentration-dependent, significant cell death"
same,induction of MSH2/6-dependent cell death,[5],"induces the targeted, MSH2/6-dependent cell death"
same,cell killing,[6],more effective in sensitive ovarian cancer cells than cisplatinum
same,cell death with increasing concentrations of rescinnamine,[6]; [11],"concentration-dependent, significant cell death"
"COC(=O)[C@H]1[C@H]2C[C@@H]3c4[nH]c5cc(OC)ccc5c4CCN3C[C@H]2C[C@@H](OC(=O)/C=C/c2ccccc2)[C@@H]1OC [cinnamoyl reserpine, Cinnamyl reserpine]",IC50,[1]; [8],130 µM
same,IC50,[1]; [9],130 µM
same,IC50,[2]; [10],150 µM
same,IC50,[2]; [12],150 µM
same,Fold difference,[2],1.2
same,MSH2 dependence of cell death response (words),[2],independent of functional MSH2
"COC(=O)[C@H]1[C@H]2C[C@@H]3c4[nH]c5cc(OC)ccc5c4CCN3C[C@H]2C[C@@H](O)[C@@H]1OC [Methyl Reserpate, Methyl reserpate]",induction of cell death,[1],only weakly induces cell death
same,induction of cell death,[2],only weakly induces cell death
same,MSH2 dependence of cell death response (words),[2],no preference for either cell line
"COC(=O)[C@H]1[C@H]2C[C@@H]3c4[nH]c5cc(OC)ccc5c4CCN3C[C@H]2C[C@@H](OC(=O)c2ccccc2)[C@@H]1OC [MJG-6-41, Benzoyl resperine]",IC50,[1]; [8],132 µM
same,IC50,[2]; [10],110 µM
same,Fold difference,[2],0.83
"COC(=O)[C@H]1[C@H]2C[C@@H]3c4[nH]c5cc(OC)ccc5c4CCN3C[C@H]2C[C@@H](OC(=O)c2cccc(OC)c2)[C@@H]1OC [3-methoxy benzoyl, 3-Methoxybenzoyl reserpine]",IC50,[1]; [8],88 µM
same,IC50,[2]; [10],83 µM
same,Fold difference,[2],0.94
NCCCC[C@H](N[C@@H](CCc1ccccc1)C(=O)O)C(=O)N1CCC[C@H]1C(=O)O [lisinopril],cell killing,[4],does not show the same effect
same,cell killing,[6],does not show the same effect
"COC(=O)[C@H]1[C@H]2C[C@@H]3c4[nH]c5cc(OC)ccc5c4CCN3C[C@H]2C[C@@H](OC(=O)c2ccc(OC)c(OC)c2)[C@@H]1OC [3,4-dimethoxy benzoyl, 3,4-Dimethoxybenzoyl reserpine]",IC50,[1]; [8],66 µM
same,IC50,[1]; [9],66 µM
same,IC50,[2]; [10],85 µM
same,IC50,[2]; [12],85 µM
same,Fold difference,[2],1.3
same,MSH2 dependence of cell death response (words),[2],significant MSH2-dependent cell death response
COC(=O)[C@H]1[C@H]2C[C@@H]3c4[nH]c5cc(OC)ccc5c4CCN3C[C@H]2C[C@@H](OC(=O)c2cc(OC)c(OC)c(OC)c2)[C@@H]1OC [reserpine],IC50,[1]; [8],61 µM
same,IC50,[1]; [9],61 µM
same,IC50,[2]; [10],93 µM
same,Fold difference,[2],1.5
same,MSH2 dependence of cell death response (words),[2],robust MSH2-dependent cell death response
same,MSH2 dependence of cell death response (words),[2]; listed as Reserpine,significant increase in resistance
"COC(=O)[C@H]1[C@H]2C[C@@H]3c4[nH]c5cc(OC)ccc5c4CCN3C[C@H]2C[C@@H](OC(=O)c2ccc3c(c2)OCO3)[C@@H]1OC [methylendioxy-benzoyl, 3,4-Methylenedioxy benzoyl reserpine]",IC50,[1]; [8],51 µM
same,IC50,[1]; [9],51 µM
same,IC50,[2]; [10],36 µM
same,IC50,[2]; [12],36 µM
same,Fold difference,[2],0.71
same,MSH2 dependence of cell death response (words),[2],MSH2-deficient cells show a higher sensitivity
N.N.[Cl][Pt][Cl] [cisplatin],IC50,"[1]; MTS, read-out: IC50 MSH2-proficient",47 µM
same,IC50,"[2]; MTS, read-out: IC50 MSH2-deficient",75 µM
same,Fold difference,[2],1.6
same,MSH2 dependence of cell death response (words),[2],only a weak difference
same,"increase in resistance in MSH2-deficient cells, late response",[7],two- to four-fold increase in resistance
COC(=O)[C@H]1[C@H]2C[C@@H]3c4[nH]c5ccccc5c4CCN3C[C@H]2C[C@@H](OC(=O)c2cc(OC)c(OC)c(OC)c2)[C@@H]1OC [deserpidine],IC50,[1]; [8],48 µM
same,IC50,[1]; [9],49 µM
same,IC50,[2]; [10],59 µM
same,IC50,[2]; [12],56 µM
same,Fold difference,[2],1.2
same,MSH2 dependence of cell death response (words),[2],no significant specificity for the presence of MSH2
"COC(=O)[C@H]1[C@H]2C[C@@H]3c4[nH]c5cc(OC)ccc5c4CCN3C[C@H]2C[C@@H](OC(=O)c2cc(OC)cc(OC)c2)[C@@H]1OC [3,5-dimethoxy benzoyl, 3,5-Dimethoxybenzoyl reserpine]",IC50,[1]; [8],38 µM
same,IC50,[2]; [10],36 µM
same,Fold difference,[2],0.95
"COC(=O)[C@H]1[C@H]2C[C@@H]3c4[nH]c5cc(OC)ccc5c4CCN3C[C@H]2C[C@@H](OC(=O)c2ccc(OC)cc2)[C@@H]1OC [4-methoxy benzoyl, 4-Methoxybenzoyl reserpine]",IC50,[1]; [8],67 µM
same,IC50,[2]; [10],68 µM
same,Fold difference,[2],1.01
